Measured values published in the NIST ThermoML archive (doi:10.1021/acs.jced.6b00470).
Numbers after ± are expanded uncertainties.

Key:
[1] = Liquid; for mass density / viscosity: 101.33 kPa; for mass density: Vibrating tube method; for viscosity: Vibrating wire viscometry; for vapor or sublimation pressure: Ebulliometric method (Recirculating still)
[2] = refractive index (other wavelength) (dimensionless); details: 100 kPa, Liquid, Standard Abbe refractometry

COC(=O)c1ccc(C(C)(C)C)cc1 [methyl 4-tert-butylbenzoate]
[1]
Details	mass density [kg/m3]	vapor or sublimation pressure [kPa]	viscosity [mPa·s]
293.15 K	1008.55 ± 1.5	–	6.867 ± 0.36
298.15 K	1004.06 ± 1.5	–	5.867 ± 0.35
303.15 K	999.54 ± 1.5	–	5.013 ± 0.34
308.15 K	994.01 ± 1.5	–	4.291 ± 0.33
313.15 K	989.09 ± 1.5	–	3.687 ± 0.32
318.15 K	983.89 ± 1.5	–	3.188 ± 0.31
323.15 K	979.29 ± 1.5	–	2.781 ± 0.31
328.15 K	974.01 ± 1.5	–	2.451 ± 0.31
333.15 K	969.29 ± 1.5	–	2.185 ± 0.3
338.15 K	964.47 ± 1.5	–	1.969 ± 0.3
343.15 K	959.5 ± 1.5	–	1.79 ± 0.3
348.15 K	954.38 ± 1.5	–	1.634 ± 0.3
353.15 K	948.71 ± 1.5	–	1.487 ± 0.3
398.3 K	–	1.21 ± 0.41	–
408.4 K	–	1.89 ± 0.41	–
411.3 K	–	2.13 ± 0.41	–
421.3 K	–	3.19 ± 0.42	–
430.4 K	–	4.51 ± 0.43	–
434.9 K	–	5.32 ± 0.45	–
440.6 K	–	6.53 ± 0.46	–
446.1 K	–	7.93 ± 0.48	–
448.2 K	–	8.53 ± 0.51	–
452.4 K	–	9.87 ± 0.52	–
454.3 K	–	10.53 ± 0.54	–
457.2 K	–	11.6 ± 0.56	–
459.7 K	–	12.61 ± 0.58	–
462.6 K	–	13.87 ± 0.6	–
464.3 K	–	14.67 ± 0.63	–
466.3 K	–	15.67 ± 0.66	–
467.2 K	–	16.13 ± 0.66	–
470.7 K	–	18 ± 0.69	–
473.6 K	–	19.73 ± 0.73	–
475.1 K	–	20.67 ± 0.77	–
477.9 K	–	22.53 ± 0.8	–
480.1 K	–	24.13 ± 0.84	–
482.4 K	–	25.87 ± 0.88	–
483.3 K	–	26.53 ± 0.87	–
484.9 K	–	27.88 ± 0.93	–
486.4 K	–	29.13 ± 0.93	–
487.9 K	–	30.4 ± 0.97	–
489.5 K	–	31.86 ± 1	–
490.6 K	–	32.93 ± 1	–
492.4 K	–	34.66 ± 1	–

refractive index, [2]
Details	Wavelength=404.7 nm	Wavelength=435.8 nm	Wavelength=486.1 nm	Wavelength=546.1 nm	Wavelength=587.6 nm	Wavelength=589.3 nm	Wavelength=632.8 nm	Wavelength=644 nm	Wavelength=706.5 nm
293.15 K	1.53993 ± 0.00056	1.53137 ± 0.00054	1.52182 ± 0.00052	1.51423 ± 0.0005	1.51053 ± 0.0005	1.51039 ± 0.0005	1.50735 ± 0.0005	1.50663 ± 0.0005	1.50334 ± 0.00049
298.15 K	1.53745 ± 0.00056	1.52893 ± 0.00054	1.51944 ± 0.00051	1.51188 ± 0.0005	1.5082 ± 0.0005	1.50807 ± 0.00049	1.50504 ± 0.0005	1.50433 ± 0.0005	1.50105 ± 0.00049
303.15 K	1.5352 ± 0.00056	1.52672 ± 0.00054	1.51725 ± 0.00051	1.50975 ± 0.0005	1.50608 ± 0.00049	1.50595 ± 0.0005	1.50293 ± 0.0005	1.50222 ± 0.0005	1.49897 ± 0.00049
308.15 K	1.53292 ± 0.00056	1.52448 ± 0.00054	1.51505 ± 0.00051	–	–	–	–	–	–
